From patent US20240100065A1, “METHODS FOR TREATING RECEPTOR-INTERACTING PROTEIN KINASE 1-MEDIATED DISEASES” (Genzyme Corporation, priority 2022, published 2024)

Test: Safety and tolerability (TEAEs, PCSAs, laboratory tests) in phase 1 study Parts 1a, 1b, 2
Assay type: in vivo, healthy adult participants (human)
Protocol: This single ascending dose (SAD) study consisted of three parts: Part 1a, which is a phase 1, randomized, placebo-controlled, double-blind, sequential ascending single dose study; Part 1b, which is phase 1, open-label, sequential single dose study; and Part 2, which is an ascending 14-day repeated oral dose study.
Part 1a evaluated 4 sequential ascending dose levels of Compound 1 under fasted conditions: 10 mg, 20 mg, 30 mg, and 40 mg, each dose per cohort. Participants were fasted overnight for at least 8 hours before the morning dose and 2 hours after dosing.
Part 1b is an open-label study with two single dose levels of Compound 1, previously tested for safety/tolerability in SAD cohorts of Part 1a, were selected (10 mg and 40 mg) and sequentially administered under a fed condition, each dose per cohort. Participants were fasted overnight for at least 8 hours, and then fed with a light breakfast approximately 30 minutes before Compound 1 dosing. In both Part 1a and 1b, all participants received one single dose of treatment.
Part 2 was a randomized, double-blind, placebo-controlled study that evaluated 14-day multiple ascending oral doses of Compound 1 once daily (OD) or twice daily (BID) regimen under fasted conditions: 10 mg QD, 20 mg QD, 15 mg BID, and 20 mg BID. Participants fasted overnight for at least 8 hours before the morning dose and 2 hours after dosing on Day 1 and Day 14. All other morning doses were administered after an overnight fast and approximately 30 minutes before a breakfast snack. Sentinel dosing approach was followed where two of ten participants in each cohort were dosed the first day (n=1, Compound; n=1, placebo) in advance of the full cohort. The remaining 8 participants from each cohort were randomized to receive either Compound or placebo (randomized 7:1) on the following days with at least 48-hour interval from dosing of the sentinel participants, allowing a safety evaluation at the predicted steady state.
Safety and tolerability were assessed by physical examination, neurological examination, monitoring adverse events (AEs) and potentially clinically significant abnormalities (PCSAs) in clinical laboratory tests (hematology, clinical chemistry, and urinalysis), vital signs (body temperature, blood pressure and heart rate), and ECG parameters (heart rate, RR, PR, QRS, QT, QTcF, QTcB intervals) measured in the standard 12-lead ECG or ECGs extracted from 24-hour Holter ECG data.
Safety population included all participants who received at least one dose of study intervention (Compound 1 or placebo). All safety assessments (AEs, laboratory parameters, vital signs) were based on the review of individual values and were summarized using descriptive statistics. Safety analysis was focused on treatment-emergent period, defined as the time from the first investigational medicinal product (IMP) administration up to the end of study visit (included). AEs were coded according to the Medical Dictionary for Regulatory Activities (MedDRA, version 23.1 in Part 1a and Part 1b; version 24 in Part 2). Severity was graded from Grade 1 to 4 according to the Food and Drug Administration (FDA) Guidance for Industry. Number (%) of participants experiencing TEAEs and potentially clinically significant abnormality (PCSAs) in clinical chemistry, vital signs, and ECGs were summarized by dose level group.

SMILES: CC(C)(C(=O)N1CCOc2c(C#N)cncc2C1)C(F)F [Compound 1, 4-(3,3-difluoro-2,2-dimethyl-propanoyl)-3,5-dihydro-2H-pyrido[3,4-f] [1,4]oxazepine-9-carbonitrile]
- Any Grade ≥3 TEAE, participants (Part 1a single 10 mg fasted): 0 n
- Any TEAE, participants (Part 1a single 10 mg fasted): 2 n
- Any treatment-emergent AESI, participants (Part 1a single 10 mg fasted): 0 n
- Any treatment-emergent SAE, participants (Part 1a single 10 mg fasted): 0 n
- TEAE Blood creatine phosphokinase increased, participants (Part 1a single 10 mg fasted): 0 n
- TEAE Cardiac disorders, participants (Part 1a single 10 mg fasted): 1 n
- TEAE Dermatitis contact, participants (Part 1a single 10 mg fasted): 1 n
- TEAE Dizziness, participants (Part 1a single 10 mg fasted): 0 n
- TEAE Eye disorders, participants (Part 1a single 10 mg fasted): 0 n
- TEAE Fatigue, participants (Part 1a single 10 mg fasted): 0 n
- TEAE General disorders and administration site conditions, participants (Part 1a single 10 mg fasted): 0 n
- TEAE Headache, participants (Part 1a single 10 mg fasted): 0 n
- TEAE Investigations, participants (Part 1a single 10 mg fasted): 0 n
- TEAE Keratitis, participants (Part 1a single 10 mg fasted): 0 n
- TEAE Medical device site dermatitis, participants (Part 1a single 10 mg fasted): 0 n
- TEAE Musculoskeletal and connective tissue disorders, participants (Part 1a single 10 mg fasted): 0 n
- TEAE Myalgia, participants (Part 1a single 10 mg fasted): 0 n
- TEAE Nervous system disorders, participants (Part 1a single 10 mg fasted): 0 n
- TEAE Presyncope, participants (Part 1a single 10 mg fasted): 0 n
- TEAE Skin and subcutaneous tissue disorders, participants (Part 1a single 10 mg fasted): 1 n
- TEAE Skin irritation, participants (Part 1a single 10 mg fasted): 0 n
- TEAE Tachycardia, participants (Part 1a single 10 mg fasted): 0 n
- TEAE Thrombophlebitis, participants (Part 1a single 10 mg fasted): 0 n
- TEAE Vascular disorders, participants (Part 1a single 10 mg fasted): 0 n
- TEAE Ventricular extrasystoles, participants (Part 1a single 10 mg fasted): 1 n
- TEAE Vessel puncture site hypoaesthesia, participants (Part 1a single 10 mg fasted): 0 n
- TEAE Vessel puncture site pain, participants (Part 1a single 10 mg fasted): 0 n
- Any Grade ≥3 TEAE, participants (Part 1a single 20 mg fasted): 0 n
- Any TEAE, participants (Part 1a single 20 mg fasted): 1 n
- Any treatment-emergent AESI, participants (Part 1a single 20 mg fasted): 0 n
- Any treatment-emergent SAE, participants (Part 1a single 20 mg fasted): 0 n
- TEAE Blood creatine phosphokinase increased, participants (Part 1a single 20 mg fasted): 0 n
- TEAE Cardiac disorders, participants (Part 1a single 20 mg fasted): 1 n
- TEAE Dermatitis contact, participants (Part 1a single 20 mg fasted): 0 n
- TEAE Dizziness, participants (Part 1a single 20 mg fasted): 0 n
- TEAE Eye disorders, participants (Part 1a single 20 mg fasted): 0 n
- TEAE Fatigue, participants (Part 1a single 20 mg fasted): 0 n
- TEAE General disorders and administration site conditions, participants (Part 1a single 20 mg fasted): 0 n
- TEAE Headache, participants (Part 1a single 20 mg fasted): 1 n
- TEAE Investigations, participants (Part 1a single 20 mg fasted): 0 n
- TEAE Keratitis, participants (Part 1a single 20 mg fasted): 0 n
- TEAE Medical device site dermatitis, participants (Part 1a single 20 mg fasted): 0 n
- TEAE Musculoskeletal and connective tissue disorders, participants (Part 1a single 20 mg fasted): 0 n
- TEAE Myalgia, participants (Part 1a single 20 mg fasted): 0 n
- TEAE Nervous system disorders, participants (Part 1a single 20 mg fasted): 1 n
- TEAE Presyncope, participants (Part 1a single 20 mg fasted): 0 n
- TEAE Skin and subcutaneous tissue disorders, participants (Part 1a single 20 mg fasted): 0 n
- TEAE Skin irritation, participants (Part 1a single 20 mg fasted): 0 n
- TEAE Tachycardia, participants (Part 1a single 20 mg fasted): 1 n
- TEAE Thrombophlebitis, participants (Part 1a single 20 mg fasted): 0 n
- TEAE Vascular disorders, participants (Part 1a single 20 mg fasted): 0 n
- TEAE Ventricular extrasystoles, participants (Part 1a single 20 mg fasted): 0 n
- TEAE Vessel puncture site hypoaesthesia, participants (Part 1a single 20 mg fasted): 0 n
- TEAE Vessel puncture site pain, participants (Part 1a single 20 mg fasted): 0 n
- Any Grade ≥3 TEAE, participants (Part 1a single 30 mg fasted): 0 n
- Any TEAE, participants (Part 1a single 30 mg fasted): 3 n
- Any treatment-emergent AESI, participants (Part 1a single 30 mg fasted): 0 n
- Any treatment-emergent SAE, participants (Part 1a single 30 mg fasted): 0 n
- Dizziness, events (Part 1a single 30 mg fasted): 3 events
- TEAE Blood creatine phosphokinase increased, participants (Part 1a single 30 mg fasted): 0 n
- TEAE Cardiac disorders, participants (Part 1a single 30 mg fasted): 0 n
- TEAE Dermatitis contact, participants (Part 1a single 30 mg fasted): 1 n
- TEAE Dizziness, participants (Part 1a single 30 mg fasted): 2 n
- TEAE Eye disorders, participants (Part 1a single 30 mg fasted): 1 n
- TEAE Fatigue, participants (Part 1a single 30 mg fasted): 1 n
- TEAE General disorders and administration site conditions, participants (Part 1a single 30 mg fasted): 1 n
- TEAE Headache, participants (Part 1a single 30 mg fasted): 0 n
- TEAE Investigations, participants (Part 1a single 30 mg fasted): 0 n
- TEAE Keratitis, participants (Part 1a single 30 mg fasted): 1 n
- TEAE Medical device site dermatitis, participants (Part 1a single 30 mg fasted): 0 n
- TEAE Musculoskeletal and connective tissue disorders, participants (Part 1a single 30 mg fasted): 0 n
- TEAE Myalgia, participants (Part 1a single 30 mg fasted): 0 n
- TEAE Nervous system disorders, participants (Part 1a single 30 mg fasted): 2 n
- TEAE Presyncope, participants (Part 1a single 30 mg fasted): 0 n
- TEAE Skin and subcutaneous tissue disorders, participants (Part 1a single 30 mg fasted): 1 n
- TEAE Skin irritation, participants (Part 1a single 30 mg fasted): 0 n
- TEAE Tachycardia, participants (Part 1a single 30 mg fasted): 0 n
- TEAE Thrombophlebitis, participants (Part 1a single 30 mg fasted): 1 n
- TEAE Vascular disorders, participants (Part 1a single 30 mg fasted): 1 n
- TEAE Ventricular extrasystoles, participants (Part 1a single 30 mg fasted): 0 n
- TEAE Vessel puncture site hypoaesthesia, participants (Part 1a single 30 mg fasted): 0 n
- TEAE Vessel puncture site pain, participants (Part 1a single 30 mg fasted): 0 n
- Any Grade ≥3 TEAE, participants (Part 1a single 40 mg fasted): 0 n
- Any TEAE, participants (Part 1a single 40 mg fasted): 3 n
- Any treatment-emergent AESI, participants (Part 1a single 40 mg fasted): 0 n
- Any treatment-emergent SAE, participants (Part 1a single 40 mg fasted): 0 n
- Dizziness, events (Part 1a single 40 mg fasted): 1 event
- TEAE Blood creatine phosphokinase increased, participants (Part 1a single 40 mg fasted): 0 n
- TEAE Cardiac disorders, participants (Part 1a single 40 mg fasted): 1 n
- TEAE Dermatitis contact, participants (Part 1a single 40 mg fasted): 1 n
- TEAE Dizziness, participants (Part 1a single 40 mg fasted): 1 n
